{
  "source": "ChEMBL document CHEMBL5634141",
  "about": "(Eur J Med Chem, 2023)",
  "key": {"MIA PaCa-2 [1]": {"test_system": "MIA PaCa-2", "assay": "Antiproliferative activity against human MIA PaCa-2 cells expressing KRAS G12C mutant assessed as relative cell viability at 30 nM incubated for 72 hrs in presence of infigratinib by CCK-8 assay", "assay_type": "functional", "settings": "read-out: Activity"}, "MIA PaCa-2 [2]": {"test_system": "MIA PaCa-2", "assay": "Induction of apoptosis in human MIA PaCa-2 cells assessed as late apoptotic cells at 300 nM incubated for 48 hrs by Annexin V-FITC staining based flow cytometry analysis (reference value: 5.69 %)", "assay_type": "functional"}, "MIA PaCa-2 [3]": {"test_system": "MIA PaCa-2", "assay": "Antitumor activity against human MIA PaCa-2 cells xenografted in BALB/c nude mouse assessed as tumor growth inhibition at 10 mg/kg, ip measured after 8 days relative to control", "assay_type": "functional", "settings": "MIA PaCa-2, 192 h, time 8 day, read-out: TGI"}, "NCI-H358 [4]": {"test_system": "NCI-H358", "assay": "Inhibition of cell migration in human NCI-H358 cells incubated for 12 hrs by wound healing assay", "assay_type": "functional, cell-based", "settings": "dose 30-300 nM"}, "NCI-H358 [5]": {"test_system": "NCI-H358", "assay": "Induction of apoptosis in human NCI-H358 cells assessed as viable cells at 30 nM incubated for 48 hrs by Annexin V-FITC staining based flow cytometry analysis (reference value: 91.6 %)", "assay_type": "functional", "settings": "read-out: Activity"}, "MIA PaCa-2 [6]": {"test_system": "MIA PaCa-2", "assay": "Antitumor activity against human MIA PaCa-2 cells xenografted in BALB/c nude mouse assessed as tumor growth inhibition at 30 mg/kg, ip measured after 16 days relative to control", "assay_type": "functional", "settings": "MIA PaCa-2, 384 h, time 16 day, read-out: TGI"}, "NCI-H358 [7]": {"test_system": "NCI-H358", "assay": "Inhibition of colony formation in human NCI-H358 cells expressing KRAS G12C mutant assessed as reduction in cell number at 30 nM incubated for 14 days in presence of AZD4573 by crystal violet staining based analysis", "assay_type": "functional", "settings": "time 14.0 day"}, "[8]": {"test_system": "von Hippel-Lindau disease tumor suppressor/GTPase KRas (Homo sapiens), P01116+P40337 [G12C]", "assay": "(§1) PROTAC activity at VHL/KRAS G12C mutant in human NCI-H358 cells assessed as induction of protein degradation incubated for 72 hrs by Western blot analysis", "assay_type": "cell-based"}, "[9]": {"target": "von Hippel-Lindau disease tumor suppressor/GTPase KRas (Homo sapiens, UniProt P01116+P40337, G12C)", "sequence (P01116 whole entry G12C, stated change not applied)": "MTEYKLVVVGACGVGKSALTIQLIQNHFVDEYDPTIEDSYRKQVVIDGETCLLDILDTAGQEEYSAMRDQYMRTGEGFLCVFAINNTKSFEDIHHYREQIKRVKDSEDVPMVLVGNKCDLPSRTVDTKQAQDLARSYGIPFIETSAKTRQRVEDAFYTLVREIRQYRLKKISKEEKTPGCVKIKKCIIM", "sequence (P40337 whole entry partner, stated change not applied)": "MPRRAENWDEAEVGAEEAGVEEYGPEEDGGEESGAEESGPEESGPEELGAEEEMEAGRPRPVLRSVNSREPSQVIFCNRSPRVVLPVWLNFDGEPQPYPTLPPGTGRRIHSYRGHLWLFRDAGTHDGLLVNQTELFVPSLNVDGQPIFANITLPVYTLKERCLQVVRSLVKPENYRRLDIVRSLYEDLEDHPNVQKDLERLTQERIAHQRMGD", "assay": "as §1", "assay_type": "cell-based"}, "[10]": {"test_system": "von Hippel-Lindau disease tumor suppressor/GTPase KRas (Homo sapiens), P01116+P40337 [G12C]", "assay": "PROTAC activity at VHL/KRAS G12C mutant in human NCI-H358 cells assessed as induction of protein degradation at 100 nM preincubated with MLN4924 for 6 hrs followed by compound addition and measured after 48 hrs by Western blotting analysis", "assay_type": "cell-based"}, "MIA PaCa-2 [11]": {"test_system": "MIA PaCa-2", "assay": "Antiproliferative activity against human MIA PaCa-2 cells expressing KRAS G12C mutant assessed as inhibition of cell growth incubated for 72 hrs by CCK-8 assay", "assay_type": "functional, cell-based", "settings": "MIA PaCa-2, 72 h"}, "MIA PaCa-2 [12]": {"test_system": "MIA PaCa-2", "assay": "Antiproliferative activity against human MIA PaCa-2 cells expressing KRAS G12C mutant assessed as inhibition of cell growth at 100 nM incubated for 8 days by CCK-8 assay", "assay_type": "functional, cell-based", "settings": "time 8.0 day"}, "MIA PaCa-2 [13]": {"test_system": "MIA PaCa-2", "assay": "Antitumor activity against human MIA PaCa-2 cells xenografted in BALB/c nude mouse assessed as increase in percentage of cleaved-caspase 3-positive cells at 10 to 30 mg/kg, ip administered for 16 days by immunohistochemical staining analysis", "assay_type": "functional, organism-based", "settings": "dose 10-30 mg/kg, time 16.0 day"}, "NCI-H358 [14]": {"test_system": "NCI-H358", "assay": "Induction of apoptosis in human NCI-H358 cells assessed as early apoptotic cells at 300 nM incubated for 48 hrs by Annexin V-FITC staining based flow cytometry analysis (reference value: 1.60 %)", "assay_type": "functional"}, "NCI-H358 [15]": {"test_system": "NCI-H358", "assay": "Antiproliferative activity against human NCI-H358 cells expressing KRAS G12C mutant assessed as inhibition of cell growth at 100 nM incubated for 8 days by CCK-8 assay", "assay_type": "functional, cell-based", "settings": "time 8.0 day"}, "NCI-H358 [16]": {"test_system": "NCI-H358", "assay": "Antiproliferative activity against human NCI-H358 cells expressing KRAS G12C mutant assessed as relative cell viability at 30 nM incubated for 72 hrs in presence of selumetinib by CCK-8 assay", "assay_type": "functional", "settings": "read-out: Activity"}, "[17]": {"test_system": "von Hippel-Lindau disease tumor suppressor/GTPase KRas (Homo sapiens), P01116+P40337 [G12C]", "assay": "PROTAC activity at VHL/KRAS G12C mutant in human NCI-H358 cells assessed as induction of protein degradation at 100 nM incubated for 1 to 8 days by Western blotting analysis", "assay_type": "cell-based", "settings": "time 1-8 day"}, "[18]": {"assay": "Toxicity in ICR mouse assessed as side effects at 2 mg/kg, iv measured after 24 hrs", "assay_type": "organism-based", "settings": "in vivo"}, "MIA PaCa-2 [19]": {"test_system": "MIA PaCa-2", "assay": "Induction of apoptosis in human MIA PaCa-2 cells assessed as viable cells at 300 nM incubated for 48 hrs by Annexin V-FITC staining based flow cytometry analysis (reference value: 91.5 %)", "assay_type": "functional", "settings": "read-out: Activity"}, "NCI-H358 [20]": {"test_system": "NCI-H358", "assay": "Induction of apoptosis in human NCI-H358 cells assessed as late apoptotic cells at 30 nM incubated for 48 hrs by Annexin V-FITC staining based flow cytometry analysis (reference value: 5.20 %)", "assay_type": "functional"}, "Mus musculus [21]": {"test_system": "Mus musculus", "assay": "In vivo PROTAC activity at VHL/KRAS G12C mutant in BALB/c nude mouse xenografted with human MIA PaCa-2 cells assessed as decrease in AKT phosphorylation at 10 to 30 mg/kg, ip administered for 16 days by Western blot analysis", "assay_type": "functional, organism-based", "settings": "dose 10-30 mg/kg, time 16.0 day"}, "NCI-H358 [22]": {"test_system": "NCI-H358", "assay": "Synergistic antiproliferative activity against human NCI-H358 cells expressing KRAS G12C mutant assessed as combination index at 30 nM incubated for 72 hrs in presence of naporafenib by CCK-8 assay", "assay_type": "functional"}, "NCI-H358 [23]": {"test_system": "NCI-H358", "assay": "Inhibition of colony formation in human NCI-H358 cells expressing KRAS G12C mutant assessed as reduction in cell number at 30 nM incubated for 14 days in presence of linsitinib by crystal violet staining based analysis", "assay_type": "functional", "settings": "time 14.0 day"}, "MIA PaCa-2 [24]": {"test_system": "MIA PaCa-2", "assay": "Antitumor activity against human MIA PaCa-2 cells xenografted in BALB/c nude mouse assessed as reduction in percentage of KRAS-positive cells at 10 to 30 mg/kg, ip administered for 16 days by immunohistochemical staining analysis", "assay_type": "functional, organism-based", "settings": "dose 10-30 mg/kg, time 16.0 day"}, "[25]": {"test_system": "von Hippel-Lindau disease tumor suppressor/GTPase KRas (Homo sapiens), P01116+P40337 [G12C]", "assay": "PROTAC activity at VHL/KRAS G12C mutant in human MIA PaCa-2 cells assessed as induction of protein degradation in presence of MG132 by Western blot analysis", "assay_type": "cell-based"}, "[26]": {"assay": "AUC (0 to infinity) in ICR mouse at 30 mg/kg, ip measured after 24 hrs by LC-MS/MS analysis", "assay_type": "ADME, organism-based", "settings": "in vivo"}, "[27]": {"assay": "AUC (0 to t) in ICR mouse at 30 mg/kg, ip measured after 24 hrs by LC-MS/MS analysis", "assay_type": "ADME, organism-based", "settings": "in vivo"}, "Mus musculus [28]": {"test_system": "Mus musculus", "assay": "In vivo PROTAC activity at VHL/KRAS G12C mutant in BALB/c nude mouse xenografted with human MIA PaCa-2 cells assessed as decrease in ERK phosphorylation at 10 to 30 mg/kg, ip administered for 16 days by Western blot analysis", "assay_type": "functional, organism-based", "settings": "dose 10-30 mg/kg, time 16.0 day"}, "[29]": {"test_system": "von Hippel-Lindau disease tumor suppressor/GTPase KRas (Homo sapiens), P01116+P40337 [G12C]", "assay": "Protac activity at VHL/KRAS G12C mutant in human MIA PaCa-2 cells assessed as induction of protein degradation in presence of VH032 by Western blot analysis", "assay_type": "cell-based"}, "MIA PaCa-2 [30]": {"test_system": "MIA PaCa-2", "assay": "Induction of apoptosis in human MIA PaCa-2 cells assessed as early apoptotic cells at 300 nM incubated for 48 hrs by Annexin V-FITC staining based flow cytometry analysis (reference value: 1.55 %)", "assay_type": "functional"}, "NCI-H358 [31]": {"test_system": "NCI-H358", "assay": "Antiproliferative activity against human NCI-H358 cells expressing KRAS G12C mutant assessed as relative cell viability at 30 nM incubated for 72 hrs by CCK-8 assay", "assay_type": "functional", "settings": "read-out: Activity"}},
  "note": "Activity calls are given as the source filed them. The calls are words filed in the database; no cut-off is given here.",
  "data": [
    {"smiles": "C=CC(=O)N1CCN(c2nc(=O)n(-c3c(C)ccnc3C(C)C)c3nc(-c4c(F)cccc4OCC4CCN(CCCC(=O)N[C@H](C(=O)N5C[C@H](O)C[C@H]5C(=O)NCc5ccc(-c6scnc6C)cc5)C(C)(C)C)CC4)c(F)cc23)[C@@H](C)C1", "values": [
      {"measurement": "viability at 0.03 µM", "setting": "MIA PaCa-2 [1]", "value": 0.35, "unit": "%"},
      {"measurement": "Activity", "setting": "MIA PaCa-2 [2]", "value": 19.9, "unit": "%"},
      {"measurement": "inhibition in vivo at 10 mg/kg", "setting": "MIA PaCa-2 [3]", "value": 93.4, "unit": "%"},
      {"measurement": "inhibition", "setting": "NCI-H358 [4]", "value": "Dose-Dependent Effect"},
      {"measurement": "viability at 0.03 µM", "setting": "NCI-H358 [5]", "value": 89.4, "unit": "%"},
      {"measurement": "inhibition in vivo at 30 mg/kg", "setting": "MIA PaCa-2 [6]", "value": 100, "unit": "%"},
      {"measurement": "inhibition", "setting": "NCI-H358 [7]", "value": "Active"},
      {"measurement": "Activity", "setting": "[8]", "value": "Dose-Dependent Effect"},
      {"measurement": "DC50", "setting": "[9]", "value": 67, "unit": "nM"},
      {"measurement": "Activity", "setting": "[10]", "value": "inactive"},
      {"measurement": "IC50", "setting": "MIA PaCa-2 [11]", "value": 45, "unit": "nM"},
      {"measurement": "Activity", "setting": "MIA PaCa-2 [12]", "value": "Active"},
      {"measurement": "Activity", "setting": "MIA PaCa-2 [13]", "value": "Active"},
      {"measurement": "Activity", "setting": "NCI-H358 [14]", "value": 4.06, "unit": "%"},
      {"measurement": "Activity", "setting": "NCI-H358 [15]", "value": "Active"},
      {"measurement": "viability at 0.03 µM", "setting": "NCI-H358 [16]", "value": 0.31, "unit": "%"},
      {"measurement": "Activity", "setting": "[17]", "value": "Active"},
      {"measurement": "Activity", "setting": "[18]", "value": "Non-Toxic"},
      {"measurement": "viability at 0.3 µM", "setting": "MIA PaCa-2 [19]", "value": 66.4, "unit": "%"},
      {"measurement": "Activity", "setting": "NCI-H358 [20]", "value": 6.13, "unit": "%"},
      {"measurement": "Activity", "setting": "Mus musculus [21]", "value": "Active"},
      {"measurement": "CI", "setting": "NCI-H358 [22]", "value": "<1"},
      {"measurement": "inhibition", "setting": "NCI-H358 [23]", "value": "Active"},
      {"measurement": "Activity", "setting": "MIA PaCa-2 [24]", "value": "Active"},
      {"measurement": "Activity", "setting": "[25]", "value": "inactive"},
      {"measurement": "AUC(0-inf)", "setting": "[26]", "value": 21100, "unit": "ng·h/mL"},
      {"measurement": "AUC(0-t) at 24 h", "setting": "[27]", "value": 21000, "unit": "ng·h/mL"},
      {"measurement": "Activity", "setting": "Mus musculus [28]", "value": "Active"},
      {"measurement": "Activity", "setting": "[29]", "value": "inactive"},
      {"measurement": "Activity", "setting": "MIA PaCa-2 [30]", "value": 9.58, "unit": "%"},
      {"measurement": "viability at 0.03 µM", "setting": "NCI-H358 [31]", "value": 0.83, "unit": "%"}
    ]}
  ]
}
